Data taken from patent US11098032B2, “Pyran dervatives as CYP11A1 (cytochrome P450 monooxygenase 11A1) inhibitors” (ORION CORPORATION, priority 2016, dated 2021).
pIC50: −log10 of the molar value.

Target: T1, CYP11A1 (Homo sapiens, UniProt P05108)
T1 construct: human H295R adrenocortical carcinoma cell line was used as source of enzyme; endogenous in cells; host or cells: H295R human adrenocortical carcinoma cells
T1 sequence (P05108 40-521): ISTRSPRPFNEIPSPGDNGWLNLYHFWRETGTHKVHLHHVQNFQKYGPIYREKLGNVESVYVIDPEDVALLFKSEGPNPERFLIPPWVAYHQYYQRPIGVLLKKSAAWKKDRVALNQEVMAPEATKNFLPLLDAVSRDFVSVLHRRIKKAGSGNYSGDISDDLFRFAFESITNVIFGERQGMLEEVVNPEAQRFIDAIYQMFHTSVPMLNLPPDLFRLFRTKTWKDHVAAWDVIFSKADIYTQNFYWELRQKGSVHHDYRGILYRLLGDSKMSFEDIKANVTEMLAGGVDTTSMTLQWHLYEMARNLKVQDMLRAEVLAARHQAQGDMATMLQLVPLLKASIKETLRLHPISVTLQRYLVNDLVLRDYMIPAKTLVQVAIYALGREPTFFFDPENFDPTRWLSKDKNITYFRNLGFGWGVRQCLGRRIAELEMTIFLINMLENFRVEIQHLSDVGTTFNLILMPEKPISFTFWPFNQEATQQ
Test: CYP11A1 inhibition: modified isocaproic acid release assay (IARA) in H295R cells
Type: cell-based
Conditions: human H295R adrenocortical carcinoma cells treated three days, 3 nM [24,25-3H]-labelled cholesterol, 1% DMSO, 10 concentrations in duplicates; read-out: IC50 of the test compounds on CYP11A1 inhibition
How it was run: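 H295R adrenocortical cells treated three days with test compounds at 10 concentrations in duplicate plus 3 nM [24,25-3H]-cholesterol, 1% DMSO final. Released radiolabelled isocaproic acid measured by scintillation counting after dextran-coated charcoal extraction; IC50 determined.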

Row | pIC50 | Structure (SMILES)
1 | 6.52 to 6.82 | CCN=S(C)(=O)c1ccc(COc2coc(CN3Cc4ccccc4C3)cc2=O)cc1 (centres unmarked) [Compound 97, 5-((4-(N-Ethyl-S-methylsulfonimidoyl)benzyl)oxy)-2-(isoindolin-2-ylmethyl)-4H-pyran-4-one]
2 | > 6.82 | COc1ccc2c(c1)CN(Cc1cc(=O)c(OCc3ccc(C(=O)N(C)C)cc3)co1)C2 [Compound 138, 4-(((6-((5-Methoxyisoindolin-2-yl)methyl)-4-oxo-4H-pyran-3-yl)oxy)methyl)-N,N-dimethylbenzamide]
3 | 6.52 to 6.82 | CS(=O)(=O)N[C@@H]1CC[C@H](COc2coc(CN3Cc4ccccc4C3)cc2=O)C1 (relative stereo) [Compound 276, Cis-N-(3-(((6-(Isoindolin-2-ylmethyl)-4-oxo-4H-pyran-3-yl)oxy)methyl)-cyclo-pentyl)-methanesulfonamide]
4 | > 6.82 | O=c1cc(CN2Cc3ccccc3C2)occ1OCc1ccc(C2(O)COC2)cc1 [Compound 114, 5-((4-(3-Hydroxyoxetan-3-yl)benzyl)oxy)-2-(isoindolin-2-ylmethyl)-4H-pyran-4-one]
5 | > 6.82 | O=c1cc(CN2Cc3ccccc3C2)occ1OCc1ccc(-c2ncco2)cc1 [Compound 109, 2-(Isoindolin-2-ylmethyl)-5-((4-(oxazol-2-yl)benzyl)oxy)-4H-pyran-4-one]
6 | 6.52 to 6.82 | COc1ccc2c(c1)CCN(Cc1cc(=O)c(OCc3ccc(C#N)cc3)co1)C2 [Compound 53, 4-(((6-((6-Methoxy-3,4-dihydroisoquinolin-2(1H)-yl)methyl)-4-oxo-4H-pyran-3-yl)oxy)methyl)benzonitrile]
7 | 5.70 to 6.52 | CC(C)(O)c1ccc(COc2coc(CN3Cc4cccc(F)c4C3)cc2=O)cc1 [Compound 33, 2-((4-Fluoroisoindolin-2-yl)methyl)-5-((4-(2-hydroxypropan-2-yl)benzyl)oxy)-4H-pyran-4-one]
8 | 6.52 to 6.82 | CCCCCCNC(=O)c1ccc(COc2coc(CN3Cc4ccccc4C3)cc2=O)cc1 [Compound 142, N-Hexyl-4-(((6-(isoindolin-2-ylmethyl)-4-oxo-4H-pyran-3-yl)oxy)methyl)-benzamide]
9 | > 6.82 | O=C(N1CCOCC1)N1CCC(COc2coc(CN3Cc4ccccc4C3)cc2=O)CC1 [Compound 232, 2-(Isoindolin-2-ylmethyl)-5-((1-(morpholine-4-carbonyl)piperidin-4-yl)methoxy)-4H-pyran-4-one]
10 | > 6.82 | CN(C)C(=O)c1ccc(COc2coc(CN3Cc4ccc(C(F)(F)F)cc4C3)cc2=O)cc1 [Compound 139, N,N-Dimethyl-4-(((4-oxo-6-((5-(trifluoromethyl)isoindolin-2-yl)methyl)-4H-pyran-3-yl)oxy)methyl)benzamide]
11 | 6.52 to 6.82 | O=c1cc(CN2Cc3ccccc3C2)occ1OCC1CCN(S(=O)(=O)N2CCC2)CC1 [Compound 268, 5-((1-(Azetidin-1-ylsulfonyl)piperidin-4-yl)methoxy)-2-(isoindolin-2-ylmethyl)-4H-pyran-4-one]
12 | > 6.82 | CC(C)C(=O)N1CCC(COc2coc(CN3Cc4ccccc4C3)cc2=O)CC1 [Compound 272, 5-((1-Isobutyrylpiperidin-4-yl)methoxy)-2-(isoindolin-2-ylmethyl)-4H-pyran-4-one]
13 | 5.70 to 6.52 | CS(=O)(=O)N1CCC(COc2coc(CN3Cc4ccc(F)c(F)c4C3)cc2=O)CC1 [Compound 245, 2-((4,5-Difluoroisoindolin-2-yl)methyl)-5-((1-(methylsulfonyl)piperidin-4-yl)methoxy)-4H-pyran-4-one]
14 | 5.70 to 6.52 | CN(C)C(=O)c1ccc(COc2coc(CN3CCc4ccccc4C3)cc2=O)cc1F [Compound 78, 4-(((6-((3,4-Dihydroisoquinolin-2(1H)-yl)methyl)-4-oxo-4H-pyran-3-yl)oxy)-methyl)-2-fluoro-N,N-dimethylbenzamide]
15 | > 6.82 | O=C(c1ccc(COc2coc(CN3Cc4ccc(Br)cc4C3)cc2=O)cc1)N1CCCC1 [Compound 130, 2-((5-Bromoisoindolin-2-yl)methyl)-5-((4-(pyrrolidine-1-carbonyl)benzyl)oxy)-4H-pyran-4-one]
16 | 6.52 to 6.82 | CCS(=O)(=O)N1CC=C(COc2coc(CN3Cc4ccccc4C3)cc2=O)CC1 [Compound 99, 5-((1-(Ethylsulfonyl)-1,2,3,6-tetrahydropyridin-4-yl)methoxy)-2-(isoindolin-2-ylmethyl)-4H-pyran-4-one]
17 | 6.52 to 6.82 | CN(C1CCC(COc2coc(CN3Cc4ccccc4C3)cc2=O)CC1)S(C)(=O)=O (centres unmarked) [Compound 218, N-(4-(((6-(Isoindolin-2-ylmethyl)-4-oxo-4H-pyran-3-yl)oxy)methyl)cyclohexyl)-N-methylmethanesulfonamide]
18 | > 6.82 | O=C(C1CC1)N1CCC(COc2coc(CN3Cc4ccccc4C3)cc2=O)CC1 [Compound 226, 5-((1-(Cyclopropanecarbonyl)piperidin-4-yl)methoxy)-2-(isoindolin-2-ylmethyl)-4H-pyran-4-one]
19 | 5.70 to 6.52 | CS(=O)(=O)N1CCC(COc2coc(CN3CCc4ccccc4C3)cc2=O)CC1 [Compound 179, 2-((3,4-Dihydroisoquinolin-2(1H)-yl)methyl)-5-((1-(methylsulfonyl)piperidin-4-yl)methoxy)-4H-pyran-4-one]
20 | 5.70 to 6.52 | CS(=O)(=O)N1CCC(COc2coc(C[N+]3([O-])Cc4ccc(C(F)(F)F)cc4C3)cc2=O)CC1 (centres unmarked) [Compound 290, 2-((5-((1-(Methylsulfonyl)piperidin-4-yl)methoxy)-4-oxo-4H-pyran-2-yl)methyl)-5-(trifluoromethyl)isoindoline 2-oxide]
